# Experiments:
# Assay type in all cases: cell-based, mice
# [1] = test system: IFN-β; assay: IFN-β transcription in peritoneal macrophages treated with mRNA vaccine against SARS-COV-2 (qRT-PCR, ELISA); details: 3 μM or 10 μM, mRNA vaccine (Moderna) 1 μg/mL 20 hours
# [2] = test system: Ifnb1, Il6, and Tnf genes; assay: Relative mRNA expression in Poly(I:C)-stimulated peritoneal macrophages (qRT-PCR); details: 6 μM 24 h, Poly(I:C) 1 μg/mL 2, 4 or 6 h, qRT-PCR relative to GAPDH
# Description: Using PBS, peritoneal macrophages were harvested from mice, and were then seeded on a 96-well plate at a cell density of 2.5×10^5 cells/well, followed by culturing for 2 hours. Thereafter, the cultured cells were washed twice with PBS. IRF-PIPA 3 was suspended in a 10% FBS-RPMI or MEM medium to a final concentration of 6 μM, and the obtained suspension was then added to the cells. After completion of the culture for 24 hours, Poly(I:C) was added to the cultured cells to a final concentration of 1 μg/mL. The obtained mixture was cultured for 2, 4, or 6 hours, and the cells were recovered. Using TRIsure, the recovered cells were suspended at 100 µL/well and was then recovered. Thereafter, the relative expression levels of Ifnb1, Il6, and Tnf genes were measured by qRT-PCR.
# Mouse peritoneal macrophages were harvested from 6-week-old CL57B/6 mice (CLEA Japan, Inc.) by peritoneal lavage using 7 mL of PBS (Nacalai Tesque), and the cells adhered to the culture plate by culture for 2 hours were used in experiments. The culture was carried out using an RPMI or D-MEM medium (Nacalai Tesque) containing 10% FBS (SIGMA-ALDRICH) and Penicillin-Streptomycin mixed solution (Nacalai Tesque). The CL57B/6 mice were bred in an SPF environment.
# 2.5×10^5 Peritoneal macrophages were seeded on a plate, and were then treated with IRF-PIPA 3 for 24 hours. […]
# [3] = test system: peritoneal macrophages; assay: Cytotoxic activity: dsDNA concentration and LDH activity in culture supernatant
# Description: In order to verify the cytotoxic activity of IRF-PIPA 3, dsDNA concentration (left view in the figure) and LDH concentration (right view in the figure) in the culture supernatant were measured. The same experiment as that in FIG. 2 was carried out, and the culture supernatant was recovered. A lysate obtained by mixing 2.5×10^5 peritoneal macrophages with 90 μL of 10% FBS-RPMI or D-MEM medium and 10 μL of Lysis Buffer, and then disrupting the cells, was used as a positive control. […] Using Octet K2, the binding of each concentration of IRF-PIPA 3 shown in the figure and a target DNA sequence was analyzed. After mixing a PIPA solution with target DNA, the binding of the two substances was measured for 60 seconds. […] From changes in the binding and dissociation at each concentration over time, a Kd value was calculated as a dissociation constant indicating a binding force.
# The concentration of dsDNA in the culture supernatant was measured using Nano drop one (Thermo Fisher SCIENTIFIC). In LDH assay, LDH activity was measured using Cytotoxicity LDH Assay Kit-WST (DOJINDO LABORATORIES) according to standard protocols. As a positive control, a lysate obtained by mixing 2.5×10^5 peritoneal macrophages with 90 μL of 10% FBS-RPMI or D-MEM medium and 10 μL of Lysis Buffer, and then disrupting the cells, was used.
# [4] = test system: IFN-β, IL-6 and TNF-α; assay: Cytokine protein expression in peritoneal macrophages treated with LNP-mRNA encoding ovalbumin (ELISA); details: 6 μM, LNP-mRNA (OVA) 0.5 μg/mL 20 to 24 hours
# Description: Peritoneal macrophages were harvested from wild-type mice, and were then seeded on a 96-well plate at a cell density of 2.5×10^5 cells/well, followed by culturing for 2 hours. Thereafter, the cultured cells were washed twice with PBS. Subsequently, IRF-PIPA 3 was suspended in 10% FBS-RPMI or D-MEM to a final concentration of 6 μM, and was then added to the wells. After completion of the culture for 16 hours, an mRNA vaccine was added to the cultured cells to a final concentration of 0.5 μg/mL, and the obtained mixture was then cultured for 20 to 24 hours. Thereafter, the culture supernatant was recovered, and each protein concentration of IFN-β, IL-6 or TNF-α was then measured by ELISA.
# 2×10^4 Raw264.7 cells were seeded on a plate, and were then treated with IRF-PIPA 1, IRF-PIPA 2, IRF-PIPA 3 or IRF-PIPA 4 for 24 hours. Thereafter, the cells were stimulated with LPS (Lipopolysaccharide, SIGMA-ALDRICH) for 16 hours, and the culture supernatant was then recovered. The concentration of cytokine in the culture supernatant was measured using ELISA kit (R&D SYSTEMS) according to the standard protocols. The culture supernatant was diluted with 1% BSA-PBS, as necessary, and was then analyzed. 2.5×10^5 Mouse peritoneal macrophages were seeded on a plate, and were then treated with IRF-PIPA 3 for 16 or 24 hours. […] The concentration of cytokine in the culture supernatant was measured using ELISA kit (R&D SYSTEMS) according to the same standard protocols. On the other hand, the concentration of cytokine in mouse plasma was measured by administering 400 μg/mouse IRF-PIPA 3 into the abdominal cavity of wild-type mice, then administering 250 μg of Poly(I:C) into the same abdominal cavity 24 hours after the IRF-PIPA 3 administration, then collecting blood further 2 hours after the Poly(I:C) administration, and then measuring the cytokine concentration in the plasma using ELISA kit (R&D SYSTEMS) according to standard protocols.
# [5] = peritoneal macrophages, same experiment as FIG. 2 (3 or 10 μM)
compound,measurement,setting,value
CC(=O)Nc1cn(C)c(C(=O)Nc2cc(C(=O)NCCC(=O)Nc3cc(C(=O)Nc4cn(C)c(C(=O)NCCC(=O)Nc5cn(C)c(C(=O)NCCCC(=O)Nc6cc(C(=O)Nc7cc(C(=O)Nc8cc(C(=O)NCCC(=O)Nc9cc(C(=O)Nc%10cc(C(=O)NCCC(=O)NCCCN(C)C)n(C)c%10)n(C)c9)n(C)c8)n(C)c7)n(C)c6)n5)n4)n(C)c3)n(C)c2)n1 [IRF-PIPA 3],"IFN-b transcription after addition of the mRNA vaccine (Ifnb1 relative expression, IFN-β concentration)",[1],strongly suppressed IFN-b transcription after addition of the mRNA vaccine in a concentration-dependent manner
same,relative expression level of Ifnb1 mRNA,[2],strongly suppressed induction of the expression of Ifnb1 mRNA in a concentration-dependent manner
same,cytotoxic activity,[3]; concentration range in which IRF-PIPA 3 shows strong suppressive action,does not exhibit cytotoxic activity
same,LDH activity in the culture supernatant,[3]; [5],not increased at all
same,amount of DNA in the culture supernatant,[3]; [5],not increased at all
same,expression of IFN-β protein after LNP-mRNA,[4],strongly suppressed
same,expression of IL-6 protein after LNP-mRNA,[4],strongly suppressed
same,expression of TNF-α protein after LNP-mRNA,[4],strongly suppressed

# — patent US20250268931A1, “TRANSCRIPTIONAL INHIBITOR FOR IMMUNE-RELATED GENE” (The University of Tokyo, priority 2022, published 2025)
